The values that follow come from publication PMC11889964, “Surveying helix 12 dynamics within constitutively active estrogen receptors using bipartite tetracysteine display” (The Journal of Biological Chemistry, 2025).

Numbering of substitutions follows the chain as printed.

Common to all, as to format: binding
Assay [1] concerns the target T1, ERα-LBD-ΔC4(D538G) (Homo sapiens, UniProt P03372, A546C/C417S/C530A/D538G/E380C/H547C).
T1 construct: pMCSG7 leader with TEV site (ENLYFQ/SNA); made in house; host or cells: E. coli BL21(DE3)
T1 sequence (P03372 with tags, fused parts or gaps E380C/C417S/C530A/D538G/A546C/H547C): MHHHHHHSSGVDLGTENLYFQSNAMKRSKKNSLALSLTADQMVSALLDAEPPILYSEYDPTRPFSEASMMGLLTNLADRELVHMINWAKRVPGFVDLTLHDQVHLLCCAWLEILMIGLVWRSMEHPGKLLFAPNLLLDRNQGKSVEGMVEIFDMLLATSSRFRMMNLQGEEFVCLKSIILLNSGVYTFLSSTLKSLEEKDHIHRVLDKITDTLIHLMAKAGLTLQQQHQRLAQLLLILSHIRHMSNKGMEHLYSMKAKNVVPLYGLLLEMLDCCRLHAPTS
Kind of assay: Titration FlAsH-ER assay, FlAsH apparent equilibrium dissociation constants (Kapp). The procedure:
(§1) Titration experiments were performed on 384-well black, flat-bottom plates (catalog no.: 3575; Corning) with wells containing 25 μl total reaction volume^. ERα-LBDs (10 μM) were incubated in 25 μl of binding buffer supplemented with 1 mM TCEP overnight at room temperature. […] The solutions were then transferred to a fresh 384-well black, flat-bottom plate (catalog no.: 3575; Corning) and serially diluted with binding buffer. EDT and FlAsH-EDT2 (1 μl) in binding buffer were then immediately added at final concentrations of 10 μM and 1 μM, respectively. The reactions were then allowed to incubate in the dark for 6 h at room temperature. Fluorescence counts for each sample were then measured using a SpectraMax M5e multimode plate reader, with an excitation wavelength of 508 nm and an emission wavelength of 530 nm. Data were processed using SoftMax Pro software, version 6.4 and Kaleidagraph, version 4.5. The Kapp for each complex was defined by curve fitting using the equation below. Fobs=Fmin+(Fmax−Fmin/2L)(L+P+Kapp−((L+P+Kapp)^2−(4LP))^0.5) where Fobs is the observed fluorescence; P represents the total protein concentration; L is the total concentration of FlAsH-EDT2; Fmin is the minimum fluorescence value; Fmax represents the maximum fluorescence value; and Kapp is the apparent equilibrium dissociation constant.

The target in assay [2] is T2, ERα-LBD-ΔC4 (Homo sapiens, UniProt P03372, A546C/C417S/C530A/E380C/H547C).
T2 construct: pMCSG7 leader with TEV site (ENLYFQ/SNA); made in house; host or cells: E. coli BL21(DE3)
T2 sequence (P03372 with tags, fused parts or gaps E380C/C417S/C530A/A546C/H547C): T1 sequence (P03372 with tags, fused parts or gaps E380C/C417S/C530A/D538G/A546C/H547C) with G265D
The assay is described as above. How it is done: as §1

For assay [3], the target named is T3, ERα-LBD-ΔC4(Y537S) (Homo sapiens, UniProt P03372, A546C/C417S/C530A/E380C/H547C/Y537S).
T3 construct: pMCSG7 leader with TEV site (ENLYFQ/SNA); made in house; host or cells: E. coli BL21(DE3)
T3 sequence (P03372 with tags, fused parts or gaps E380C/C417S/C530A/Y537S/A546C/H547C): T1 sequence (P03372 with tags, fused parts or gaps E380C/C417S/C530A/D538G/A546C/H547C) with Y264S, G265D
Described as above. The procedure: as §1

In assay [4] the target is T2, ERα-LBD-ΔC4. Description: Endpoint fluorescence FlAsH-ER assay. The following applies: unliganded ERα-LBD-ΔC4; 1 μM FlAsH-EDT2, 6 h. The procedure: Endpoint fluorescence experiments were performed in triplicate on 384-well black, flat-bottom plates (catalog no.: 3575; Corning) with wells containing 25 μl total reaction volume. The protein (10 μM) was incubated in FlAsH binding buffer (50 mM Tris base, 500 mM KCl, 2 mM DTT, 1 mM EDTA, 1 mM Na3VO4, 10% glycerol, pH 8.0) supplemented with 1 mM TCEP overnight at room temperature. […] Following incubation, 1 μl aliquots of EDT and FlAsH-EDT2 in binding buffer were added at final concentrations of 10 μM and 1 μM, respectively. The reaction mixtures were then allowed to incubate in the dark for 6 h at room temperature. Following incubation, the fluorescence of each sample was measured using a SpectraMax M5e multimode plate reader (Molecular Devices), with an excitation wavelength of 508 nm and an emission wavelength of 530 nm. Data were collected using SoftMax Pro software, version 6.4 (Molecular Devices) and processed using Kaleidagraph, version 4.5 (Synergy).

For assay [5], the target named is T1, ERα-LBD-ΔC4(D538G). Kind of assay: Kinetic FlAsH-ER assay, FlAsH apparent rate constants (kon). Particulars: 1 μM FlAsH-EDT2, 10 μM protein. The procedure: (§2) Kinetic experiments were performed on 384-well black, flat-bottom plates (catalog no.: 3575; Corning) with wells containing 25 μl total reaction volume. ERα-LBDs (10 μM) were incubated in 25 μl of binding buffer supplemented with 1 mM TCEP overnight at room temperature. […] Aliquots of EDT and FlAsH-EDT2 (1 μl) at respective final concentrations of 10 μM and 1 μM in binding buffer were then added to the samples. The change in fluorescence of each sample was then collected over 6 h with measurements taken at 1 min intervals. Data were collected using a SpectraMax M5e multimode plate reader, with an excitation wavelength of 508 nm and an emission wavelength of 530 nm. The data were processed using Kaleidagraph, version 4.5, and apparent rate constants (kon) were determined through curve fitting using the equation below: Fobs=Fmin+(Fmax−Fmin)(1−e^(−kT)) where Fobs is the observed fluorescence; Fmin is the minimum fluorescence value; Fmax represents the maximum fluorescence value; T is time in minutes; and k is the apparent rate constant.

Assay [6] addresses T2, ERα-LBD-ΔC4. The description is as above. The following applies: 1 μM FlAsH-EDT2, 10 μM protein. The procedure: as §2
Assay [7] addresses T3, ERα-LBD-ΔC4(Y537S). The assay is described as above. The following applies: 1 μM FlAsH-EDT2, 10 μM protein. How it is done:
as §2

Turning to `O=C(O)c1ccccc1-c1c2ccc(=O)c([As]3SCCS3)c-2oc2c([As]3SCCS3)c(O)ccc12` [FlAsH], the Kd came to 160 ± 60 nM in assay [1] (liganded receptor (+E2)); 570 ± 370 nM in assay [1] (unliganded receptor (−E2)); 1220 ± 700 nM in assay [2] (liganded receptor (+E2)); 940 ± 560 nM in assay [2] (unliganded receptor (−E2)); 540 ± 330 nM in assay [3] (liganded receptor (+E2)); 900 ± 650 nM in assay [3] (unliganded receptor (−E2)). In assay [4], the “increase in endpoint fluorescence compared with ERα-LBD-ΔC0” value is on record as 10 fold. Further, the kon – broadly, a measure of how fast the partners come together – was 1170 M⁻¹ s⁻¹ in assay [5] (liganded receptor (+10 μM E2)); 838 M⁻¹ s⁻¹ in assay [5] (unliganded receptor (−E2)); 310 M⁻¹ s⁻¹ in assay [6] (liganded receptor (+10 μM E2)); 447 M⁻¹ s⁻¹ in assay [6] (unliganded receptor (−E2)); 900 M⁻¹ s⁻¹ in assay [7] (liganded receptor (+10 μM E2)); 491 M⁻¹ s⁻¹ in assay [7] (unliganded receptor (−E2)).
